Test results as given in patent publication US9828351B2, “Enzyme interacting agents” (MONASH UNIVERSITY, priority 2014, dated 2017).

Key:
[1] = biological target: T1, SphK1a in Flpln-SphK1a cells (Flp-In T-Rex HEK293) (Homo sapiens, UniProt Q9NYA1); assay: SphK1 proteasomal degradation study (immunoblotting); type: cell-based; conditions: 10 μM test compound, 24 h
T1 construct: expressed in transfected cells; host or cells: Flp-In T-Rex HEK293 cells, doxycycline-induced
Method: These studies were performed as previously described for the drug SKI-II (C. Loveridge et al. J. Biol. Chem. 2010, 285, 38891). […] After 24 h cells were treated with 10 μm test compound, 10 μm MG132, or both. DMSO was used as the vehicle control. After a further 24 h, cells were harvested, lysed, and subjected to SDS-PAGE and immunoblotting with anti-FLAG (Sigma), anti-ERK1/2 (Promega), or anti-a-tubulin (Abcam) antibodies.

recombinant human SphK2 = biological target: T2, recombinant human SphK2 (Homo sapiens, UniProt Q9NRA0); assay: SphK2 activity assay (32P-labelled S1P production); type: biochemical; conditions: 10 μM compound; % of activity compared to control (DMSO vehicle only); read-out: SphK2% actvity at 10 μm
T2 construct: purchased Johnson and Johnson
T2 sequence (Q9NRA0 1-654): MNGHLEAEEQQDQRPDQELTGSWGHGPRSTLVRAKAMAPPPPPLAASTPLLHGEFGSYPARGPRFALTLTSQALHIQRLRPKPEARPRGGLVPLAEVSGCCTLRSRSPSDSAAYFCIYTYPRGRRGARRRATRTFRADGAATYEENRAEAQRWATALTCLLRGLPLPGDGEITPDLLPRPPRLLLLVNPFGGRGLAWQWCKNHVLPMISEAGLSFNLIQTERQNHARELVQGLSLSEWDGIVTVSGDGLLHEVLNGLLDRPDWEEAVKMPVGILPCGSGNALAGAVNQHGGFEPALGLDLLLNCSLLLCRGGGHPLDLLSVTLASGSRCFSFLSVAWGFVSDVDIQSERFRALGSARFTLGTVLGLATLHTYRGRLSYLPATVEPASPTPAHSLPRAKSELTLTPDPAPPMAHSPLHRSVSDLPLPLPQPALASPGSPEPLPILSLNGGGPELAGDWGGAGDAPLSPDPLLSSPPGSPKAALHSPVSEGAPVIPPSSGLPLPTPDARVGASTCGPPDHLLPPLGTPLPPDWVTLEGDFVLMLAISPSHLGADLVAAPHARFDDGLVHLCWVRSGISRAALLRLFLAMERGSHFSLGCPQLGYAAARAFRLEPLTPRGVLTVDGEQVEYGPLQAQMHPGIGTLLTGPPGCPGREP
Method: The SphK assays employed, measure SphK activity through the production of ^32P-labelled S1P following the addition of exogenous Sph and [γ^32P] ATP.
Activities of SphK1 and SphK2 were determined using identical assay conditions with the exception that SphK1 assays used 3 ng/assay recombinant his tagged human SphK1 (made in the lab in a baculovirus system using insect cells), while SphK2 assays used 30 ng/assay recombinant human SphK2 (purchased by Johnson and Johnson).
Compounds were dissolved in DMSO at 10 mM, the mixture was vortexed (and sonicated if necessary). Stock solutions were kept at 4° C. until used.
Aliquots were made containing 100 μM drug compound. These aliquots were then diluted in assay buffer: 100 mM tris/HCl pH 7.4, 100 mM NaCl, 1 mM sodium orthovanadate, 10 mM NaF to make up a 10 μM solution.
Recombinant enzyme was diluted in assay buffer (above) to make up a final concentration of 0.03 ng/μL (SphK1) or 0.33 ng/μL (SphK2).
40 μL recombinant enzyme was added to an Eppendorf® Safe-Lock® microcentrifuge tube. This was followed by the addition of drug compound from prepared aliquots, before adding ATP, [γ^32P]ATP and Sph. Note: ATP stock is made up in 1M Tris pH 7.4 and 200 mM MgCl2. This allows ATP to complex with Mg and be available as a substrate.
The rest of the reaction mixture was then added to the enzyme sample (Table 1). All reactions were performed as triplicates.
Reaction mixture was prepared with sufficient volume to assay all of the required samples. To do this, each of the volumes shown was multiplied by n+1, where n is the number of samples to be assayed. Assay buffer used is made up of 100 mM tris/HCl pH 7.4, 100 mM NaCl, 1 mM sodium orthovanadate and 10 mM NaF.
The mixture was then incubated at 37° C. for 20 min (SphK1)/45 min (SphK2).
To the 100 μL assay mixture, add 270 μl of chloroform/methanol/conc. HCl (100:200:1).
20 μL of 5 M KCl was then added to the assay mixture.
70 μL of chloroform was added to create phase separation. The solution was vortexed to mix well.
The solution was then centrifuged for 5 min at 13,000×g to fully separate the phases.
The upper aqueous/methanol phase was separated by aspiration.
50 μL of the remaining lower chloroform phase […] was applied onto the TLC plate by repeatedly spotting a few microliters of liquid (<5 mm diameter circle) between each sample spot with the pipette tip. The liquid was then allowed to absorb into the plate before drying with a stream of air.
The TLC plate was developed in a glass TLC developing tank with 1-butanol/ethanol/glacial acetic acid/H2O (8:2:1:2) until the mobile phase is within 1 cm of the top of the TLC plate.
The TLC plate was then exposed to a storage phosphor screen overnight. Storage phosphor screens work by capturing images produced by ionising radiation (e.g. ^32P). The phosphorimager stimulates the screen which uses lasers to convert the latent signal to light. Light is proportional to the amount of radioactivity in the sample. The image is then quantified using standard quantification software (ImageQuant™). Whatman paper with the assay mixture dilutions, was included to assist quantification of the phosphor signal.
Once the storage phosphor screen was read using the phosphorimager, S1P spots, which have an Rf of 0.7 with the mobile phase employed, were quantified.
The S1P spot intensity can be converted to the amount of phosphate transferred/min/mg protein.

T1 sequence (Q9NYA1 whole entry): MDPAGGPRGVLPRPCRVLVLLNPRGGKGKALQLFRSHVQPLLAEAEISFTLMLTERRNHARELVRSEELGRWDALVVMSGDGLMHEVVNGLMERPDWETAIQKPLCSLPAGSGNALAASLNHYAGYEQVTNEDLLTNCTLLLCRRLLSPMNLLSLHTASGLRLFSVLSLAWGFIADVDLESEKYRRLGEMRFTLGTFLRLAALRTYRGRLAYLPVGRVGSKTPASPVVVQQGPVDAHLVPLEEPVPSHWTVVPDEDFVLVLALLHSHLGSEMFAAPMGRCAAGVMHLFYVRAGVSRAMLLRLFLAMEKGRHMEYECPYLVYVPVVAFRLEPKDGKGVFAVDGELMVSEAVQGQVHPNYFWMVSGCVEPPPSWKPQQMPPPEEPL

Oc1ccc(Nc2nc(-c3ccc(Cl)cc3)cs2)cc1 [SKI-II, reference compound]
% SphK1a degradation at 10 μM [1]: 100%
remaining activity at 10 µM (recombinant human SphK2): 80 to 100%
